35 compounds from publication PMC12021657, “Rapid traversal of vast chemical space using machine learning-guided docking screens” (Nature Computational Science, 2025) can be followed below.

Each structure is given as a SMILES string.

The target in one assay is T1, Human A2AR (Homo sapiens, UniProt P29274).
T1 construct: expressed in transfected cells; host or cells: HeLa-A2A cell line (membranes prepared in house, lot A003/14-04-2019)
Put plainly: Human A2AR competition radioligand binding ([3H]-ZM241385, HeLa-A2A membranes). Particulars: for Ki: xlsx sheet A2AR_Displacement, read-out: Ki (A2AR) printed in column Displacement at 20 uM (%); for A2AR radioligand displacement at 20 µM (%): 20 µM compound, mean ± SEM of two technical replicates. The procedure:
(§1) Screening compounds (Supplementary Tables 10 and 12) were purchased from Enamine (compound purity >90%, which was confirmed by liquid chromatography−mass spectrometry and ^1H NMR spectroscopy for identified ligands; Supplementary Figs. 19–30). Human D2R competition binding experiments were carried out in polypropylene 96-well plates. Each well contained 20 µg of membranes from a CHO-D2R #S20 cell line (protein concentration of 4,322 µg ml^−1), 1.5 nM [^3H]-spiperone (54.3 Ci mmol^−1, 1 mCi ml^−1, PerkinElmer NET1187250UC) and the compound studied. Non-specific binding was determined in the presence of 10 µM sulpiride (Sigma Aldrich S8010). The reaction mixture (250 µl per well) was incubated at 25 °C for 120 min, after which 200 µl was transferred to a GF/C 96-well plate (Millipore) pretreated with 0.5% PEI and treated with binding buffer (50 mM Tris-HCl, 1 mM EDTA, 5 mM MgCl2, 5 mM KCl, 120 mM NaCl, pH 7.4). The reaction mixture was filtered and washed 4 times with 250 µl wash buffer (50 mM Tris-HCl, 0.9% NaCl, pH 7.4) before the addition of 30 μl Universol. The final measurement was performed in a microplate beta scintillation counter (Microbeta Trilux, PerkinElmer). Human A2AR competition binding experiments were carried out in a multiscreen GF/C 96-well plate (Millipore) pretreated with binding buffer (Tris-HCl 50 mM, EDTA 1 mM, MgCl2 10 mM, 2 U ml^−1 adenosine deaminase, pH 7.4). Each well was incubated with 5 μg of membranes from the HeLa-A2A cell line and prepared in our laboratory (lot A003/14-04-2019, protein concentration 2,058 μg ml^−1), 1 nM [^3H]-ZM241385 (50 Ci mmol^−1, 1 mCi ml^−1, ARC-ITISA 0884), and the compounds studied and standards. Non-specific binding was determined in the presence of NECA 50 μM (Sigma E2387). The reaction mixture (total volume of 200 μl per well) was incubated at 25 °C for 30 min, then filtered and washed 4 times with 250 μl wash buffer (Tris-HCl 50 mM, EDTA 1 mM, MgCl2 10 mM, pH 7.4), and measured in a microplate beta scintillation counter (Microbeta Trilux, PerkinElmer). Unless stated otherwise, three independent experiments were carried out to calculate Ki values.

A further assay has as its target T2, Human D2R (Homo sapiens, UniProt P14416).
T2 construct: expressed in transfected cells
Put plainly: Human D2R competition radioligand binding ([3H]-spiperone, CHO-D2R #S20 membranes). As to conditions: 10 µM compound, mean ± SEM of two technical replicates; for inhibition at 10 µM: 2 h, read-out: D2R radioligand displacement at 10 µM (%). The procedure:
as §1

T2 sequence (P14416 whole entry): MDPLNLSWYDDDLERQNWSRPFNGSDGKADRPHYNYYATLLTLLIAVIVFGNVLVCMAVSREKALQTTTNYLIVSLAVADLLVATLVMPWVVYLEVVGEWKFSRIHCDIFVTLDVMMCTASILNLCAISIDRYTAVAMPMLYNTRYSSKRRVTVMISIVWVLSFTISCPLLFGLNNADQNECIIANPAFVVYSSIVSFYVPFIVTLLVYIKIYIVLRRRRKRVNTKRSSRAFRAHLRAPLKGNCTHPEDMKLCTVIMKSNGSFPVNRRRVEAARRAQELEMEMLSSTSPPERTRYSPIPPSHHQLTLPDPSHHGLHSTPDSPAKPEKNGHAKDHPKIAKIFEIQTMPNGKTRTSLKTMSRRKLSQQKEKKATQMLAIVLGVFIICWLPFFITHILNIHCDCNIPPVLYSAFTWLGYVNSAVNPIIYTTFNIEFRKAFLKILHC
T1 sequence (P29274 whole entry): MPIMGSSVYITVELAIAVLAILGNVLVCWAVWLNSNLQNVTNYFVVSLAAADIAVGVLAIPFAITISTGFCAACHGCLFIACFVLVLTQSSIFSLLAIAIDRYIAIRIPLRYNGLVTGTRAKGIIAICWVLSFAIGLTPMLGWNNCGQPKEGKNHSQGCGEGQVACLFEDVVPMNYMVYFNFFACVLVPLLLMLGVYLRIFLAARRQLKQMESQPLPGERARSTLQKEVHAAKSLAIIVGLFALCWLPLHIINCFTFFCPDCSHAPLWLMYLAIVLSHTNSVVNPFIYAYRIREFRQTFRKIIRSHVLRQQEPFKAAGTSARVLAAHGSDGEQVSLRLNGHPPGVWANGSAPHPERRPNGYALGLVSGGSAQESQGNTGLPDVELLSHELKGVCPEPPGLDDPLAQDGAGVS

With `Cc1cccc(CC(N)C(=O)Nc2nc3c(Br)cc(F)cc3[nH]2)c1` (stereo not drawn) [Compound 3, Cc1cccc(c1)CC(C(=O)Nc2[nH]c3cc(cc(c3n2)Br)F)N], the Ki at Human A2AR came out at 2500 nM.
Take `O=C(CN1CC[C@H](Oc2ccccc2)C1)c1c[nH]c2nc(Cl)ccc12` [Compound 4, c1ccc(cc1)O[C@H]2CCN(C2)CC(=O)c3c[nH]c4c3ccc(n4)Cl]: the Ki at Human A2AR amounted to 1400 nM.
Same read-out and setting: in the case of `CCOC(=O)c1cccc2[nH]c(NC(=O)C(N)Cc3ccco3)nc12` (stereo not drawn) [Compound 6, CCOC(=O)c1cccc2c1nc([nH]2)NC(=O)C(Cc3ccco3)N] it was 1300 nM.
Turning to `FC(F)(F)c1ccnc(N2CCN(C3CCC3)CC2)c1` [Z1348398263, c1cnc(cc1C(F)(F)F)N2CCN(CC2)C3CCC3], at Human D2R, the “D2R radioligand displacement at 10 µM (%)” value is reported as 5 ± 3% and the inhibition at 10 µM was 5 ± 3%.
Regarding `c1ccc([C@H]2C[C@H](NCc3ccccc3-n3cccn3)C2)cc1` [Z1973963178, c1ccc(cc1)[C@H]2C[C@@H](C2)NCc3c(cccc3)n4nccc4], on Human D2R, the “D2R radioligand displacement at 10 µM (%)” value came to 1 ± 2% and the inhibition at 10 µM was 1 ± 2%.
Consider `OC(Cc1cccc(Cl)c1)CN1CCC=C(c2ccco2)C1` (stereo not drawn) [Z2102774071, c1cc(cc(c1)Cl)CC(CN2CCC=C(C2)c3ccco3)O], for which, at Human D2R, the “D2R radioligand displacement at 10 µM (%)” value is 10 ± 3% and the inhibition at 10 µM came to 10 ± 3%.
With `Fc1ccc([C@H]2C[C@H](NCc3cnn(-c4ccccc4)n3)C2)cc1` [Z2213086620, c1ccc(cc1)n2nc(cn2)CN[C@H]3C[C@@H](C3)c4ccc(cc4)F], at Human D2R, the “D2R radioligand displacement at 10 µM (%)” value amounted to 27 ± 1% and the inhibition at 10 µM is 27 ± 1%.
`NC(=NCc1nc(-c2ccccc2)n[nH]1)Nc1ccccn1` [Z2518713795, c1ccc(cc1)c2nc([nH]n2)CN=C(N)Nc3ccccn3]: the “A2AR radioligand displacement at 20 µM (%)” value at Human A2AR amounted to 23±3%.
For the compound `Cn1cc(-c2ccc(CN3CC[C@@H](Oc4ccccc4)C3)s2)cn1` [Z2629646171, Cn1cc(cn1)c2ccc(s2)CN3CC[C@H](C3)Oc4ccccc4], on Human D2R, the “D2R radioligand displacement at 10 µM (%)” value is 7 ± 1% and the inhibition at 10 µM was found to be 7 ± 1%.
For `c1csc(CCN2CCC(Oc3ccc(C4CC4)cn3)C2)c1` (stereo not drawn) [Z2694200197, c1cc(sc1)CCN2CCC(C2)Oc3ccc(cn3)C4CC4], at Human D2R, the “D2R radioligand displacement at 10 µM (%)” value amounted to 17 ± 4% and the inhibition at 10 µM is 17 ± 4%.
As to `c1cnc(CCN2CCC(c3cn[nH]c3)CC2)cn1` [Z2833584438, c1cnc(cn1)CCN2CCC(CC2)c3c[nH]nc3], at Human D2R, the “D2R radioligand displacement at 10 µM (%)” value amounted to 1 ± 1% and the inhibition at 10 µM is 1 ± 1%.
In the case of `O=C(Nc1ncccn1)C1CCN(CC(O)C2CCC2)CC1` (stereo not drawn) [Z3292775568, c1cnc(nc1)NC(=O)C2CCN(CC2)CC(C3CCC3)O], at Human A2AR, the “A2AR radioligand displacement at 20 µM (%)” value is 1±2%.
On to `c1ccc(NC2CCN(Cc3cccc4ncnn34)C2)cc1` (stereo not drawn) [Z3310096494, c1ccc(cc1)NC2CCN(C2)Cc3cccc4n3ncn4], for which, at Human D2R, the “D2R radioligand displacement at 10 µM (%)” value is 1 ± 2% and the inhibition at 10 µM stood at 1 ± 2%.
Consider `Cc1[nH]cnc1CN1CCC(Oc2cc(F)cc(F)c2)C1` (stereo not drawn) [Z3516846214, Cc1c(nc[nH]1)CN2CCC(C2)Oc3cc(cc(c3)F)F], for which, at Human D2R, the “D2R radioligand displacement at 10 µM (%)” value worked out at 5 ± 1% and the inhibition at 10 µM is 5 ± 1%.
In the case of `Cc1cc(CC(O)CN2CCc3c(ncn3C3CCC3)C2)ccc1F` (stereo not drawn) [Z3516919089, Cc1cc(ccc1F)CC(CN2CCc3c(ncn3C4CCC4)C2)O], on Human D2R, the “D2R radioligand displacement at 10 µM (%)” value was 1 ± 1% and the inhibition at 10 µM came to 1 ± 1%.
For `Clc1nc2c(cc1CN1CC[C@@H](Oc3ccccc3)C1)COCC2` [Z3529190238, c1ccc(cc1)O[C@@H]2CCN(C2)Cc3cc4c(nc3Cl)CCOC4], at Human D2R, the “D2R radioligand displacement at 10 µM (%)” value is 1 ± 1% and the inhibition at 10 µM was determined as 1 ± 1%.
With `c1ccc(C2CC(NCc3cc4ncccc4[nH]3)C2)cc1` (stereo not drawn) [Z3532611366, c1ccc(cc1)C2CC(C2)NCc3cc4c([nH]3)cccn4], on Human D2R, the “D2R radioligand displacement at 10 µM (%)” value amounted to 24 ± 1% and the inhibition at 10 µM is 24 ± 1%.
With `Cc1cc(NC(=O)c2cccn2CCN2CCOCC2)ns1` [Z3591989733, Cc1cc(ns1)NC(=O)c2cccn2CCN3CCOCC3], the “A2AR radioligand displacement at 20 µM (%)” value at Human A2AR was 19±1%.
Regarding `OC(CN1CCC(n2ncc3ccccc32)CC1)c1cccc(Cl)n1` (stereo not drawn) [Z3651347041, c1ccc2c(c1)cnn2C3CCN(CC3)CC(c4cccc(n4)Cl)O], on Human D2R, the “D2R radioligand displacement at 10 µM (%)” value was 28 ± 1% and the inhibition at 10 µM was found to be 28 ± 1%.
On to `CCc1ccc(CNCCc2c[nH]c3c(OC)cccc23)nc1` [Z3765568162, CCc1ccc(nc1)CNCCc2c[nH]c3c2cccc3OC], for which the “A2AR radioligand displacement at 20 µM (%)” value on Human A2AR is 16±4%.
`Clc1cccc(CCN2CC(c3ncnc4ccccc34)C2)c1` [Z3806926084, c1ccc2c(c1)c(ncn2)C3CN(C3)CCc4cccc(c4)Cl]: on Human D2R, the “D2R radioligand displacement at 10 µM (%)” value is 4 ± 1% and the inhibition at 10 µM came out at 4 ± 1%.
With `Brc1ccn2c(CN[C@H]3C[C@H](Oc4ccccc4)C3)cnc2c1` [Z8185092056, c1ccc(cc1)O[C@H]2C[C@@H](C2)NCc3n4c(nc3)cc(cc4)Br], on Human D2R, the “D2R radioligand displacement at 10 µM (%)” value worked out at 2 ± 2% and the inhibition at 10 µM came out at 2 ± 2%.
As for `Cc1ccccc1-n1cc(CNC2COc3ccccc3C2)cn1` (stereo not drawn) [Z8185092078, Cc1ccccc1n2cc(cn2)CNC3Cc4ccccc4OC3], on Human D2R, the “D2R radioligand displacement at 10 µM (%)” value stood at 3 ± 1% and the inhibition at 10 µM was 3 ± 1%.
Take `Cc1cccc(CN[C@H]2C[C@H](Oc3ccccc3)C2)c1F` [Z8185092308, Cc1c(c(ccc1)CN[C@H]2C[C@@H](C2)Oc3ccccc3)F]: on Human D2R, the “D2R radioligand displacement at 10 µM (%)” value is listed as 6 ± 2% and the inhibition at 10 µM came out at 6 ± 2%.
Take `Cc1ccc(C(O)CN2CCC3(Cc4ccccc4C3)C2)c(C)c1` (stereo not drawn) [Z8185092353, Cc1ccc(c(c1)C)C(CN2CCC3(C2)Cc4ccccc4C3)O]: on Human D2R, the “D2R radioligand displacement at 10 µM (%)” value was 4 ± 3% and the inhibition at 10 µM worked out at 4 ± 3%.
Consider `Fc1ccc(O[C@H]2CCN(Cc3cnc4ccc(Br)cn34)C2)cc1` [Z8185092492, c1cc(ccc1O[C@H]2CCN(C2)Cc3cnc4n3cc(cc4)Br)F], for which, on Human D2R, the “D2R radioligand displacement at 10 µM (%)” value stood at 5 ± 3% and the inhibition at 10 µM is 5 ± 3%.
In the case of `Cc1ccc(C2CC(NCCn3ncc4ccccc43)C2)cc1` (stereo not drawn) [Z8185092514, Cc1ccc(cc1)C2CC(C2)NCCn3c4ccccc4cn3], on Human D2R, the “D2R radioligand displacement at 10 µM (%)” value was determined as 23 ± 1% and the inhibition at 10 µM was determined as 23 ± 1%.
Take `Cc1ccc(CCN2C[C@@H]3CN(C(=O)c4cn5c(n4)CC(C)CC5)C[C@@H]3C2)cc1` (stereo partly drawn) [Z8185092530, Cc1ccc(cc1)CCN2C[C@@H]3CN(C[C@@H]3C2)C(=O)c4cn5c(n4)CC(CC5)C]: at Human D2R, the “D2R radioligand displacement at 10 µM (%)” value was 1 ± 2% and the inhibition at 10 µM worked out at 1 ± 2%.
In the case of `Clc1cnn(CCN2CCC(OCc3ccc(Br)cc3)CC2)c1` [Z8185092665, c1cc(ccc1COC2CCN(CC2)CCn3cc(cn3)Cl)Br], at Human D2R, the “D2R radioligand displacement at 10 µM (%)” value amounted to 4 ± 1% and the inhibition at 10 µM was 4 ± 1%.
For `Clc1ccc(C2CN=C(NCc3cc(OC4CCC4)ccn3)N2)cc1` (stereo not drawn) [Z8185092666, c1cc(ccc1C2CN=C(N2)NCc3cc(ccn3)OC4CCC4)Cl], on Human D2R, the “D2R radioligand displacement at 10 µM (%)” value amounted to 24 ± 1% and the inhibition at 10 µM worked out at 24 ± 1%.
Turning to `c1ccc(CC2CN(Cc3cc4ncccc4s3)C2)cc1` [Z8185092667, c1ccc(cc1)CC2CN(C2)Cc3cc4c(s3)cccn4], on Human D2R, the “D2R radioligand displacement at 10 µM (%)” value was found to be 12 ± 3% and the inhibition at 10 µM turned out to be 12 ± 3%.
Take `O[C@@H](CN1CCc2cc(Br)sc2C1)c1ccccc1F` [Z8185092668, c1ccc(c(c1)[C@H](CN2CCc3cc(sc3C2)Br)O)F]: at Human D2R, the “D2R radioligand displacement at 10 µM (%)” value was 3 ± 1% and the inhibition at 10 µM is 3 ± 1%.
For the compound `c1ccc(C2CN=C(NCCc3cn4c(n3)CCCC4)N2)cc1` (stereo not drawn) [Z8185092671, c1ccc(cc1)C2CN=C(N2)NCCc3cn4c(n3)CCCC4], on Human D2R, the “D2R radioligand displacement at 10 µM (%)” value was 5 ± 2% and the inhibition at 10 µM was found to be 5 ± 2%.
As for `Fc1cccc2nc(CNCc3ccccc3-n3cccn3)sc12` [Z8185092672, c1ccc(c(c1)CNCc2nc3cccc(c3s2)F)n4cccn4], on Human D2R, the “D2R radioligand displacement at 10 µM (%)” value worked out at 2 ± 1% and the inhibition at 10 µM is 2 ± 1%.
For `CC(C)(C)c1c[nH]c(CN2CCC(Cc3nccs3)C2)n1` (stereo not drawn) [Z8185092674, CC(C)(C)c1c[nH]c(n1)CN2CCC(C2)Cc3nccs3], at Human D2R, the “D2R radioligand displacement at 10 µM (%)” value amounted to 2 ± 3% and the inhibition at 10 µM was 2 ± 3%.
